This note sets out measurements from article PMC7356157, “Shorter Antibacterial Peptide Having High Selectivity for E. coli Membranes and Low Potential for Inducing Resistance” (Microorganisms, 2020).

The test system of series [1] is E. coli.
Description: (§5) The checkerboard method was used for evaluating peptide antibacterial activity in combination with antibiotics [43]. […] Absorbance was measured at 620 nm and individual peptide and antibiotic MIC and combined MIC were obtained. […] The fractional inhibitory concentration index (FICI) was then calculated as the sum of peptide FIC + antibiotic FIC. A ≤ 0.5 FICI indicated synergy, 0.5 to ≤4 FICI indifference, and >4 FICI antagonism [45].
(§6) The results were interpreted by taking the lowest checkerboard FIC index (previously reported method 3) [44].
Series [2] relates to P. aeruginosa 27853. As to the kind of experiment: MIC by broth microdilution. It is filed as cell-based. The settings on record: MHB, 18 h, 37 °C.
Series [3] has as its system E. coli N°4 (clinical isolate). The settings on record: broth microdilution; for MIC E. coli N°4: clinical isolate from urine. As for the experimental part: (§1) The standard broth microdilution method was used for determining the peptides’ MIC [41]. […] Bacteria in Müller–Hinton broth (MHB) were used as negative control. […] The MIC was determined as the lowest peptide concentration at which bacterial growth was not detected.
(§2) Approximately 50 bacterial samples were then collected from E. coli-infected patients for evaluating activity of the peptides against some clinical isolates. These samples were identified and biochemically and metabolically characterised using the VITEK-2 equipment. Isolates were profiled regarding their resistance or susceptibility to a panel of conventionally used antibiotics.

The subject of series [4] is E. coli N°44 (clinical isolate). The conditions noted are these: broth microdilution; for MIC E. coli N°44: clinical isolate from blood, ESBL (+). As for the experimental part: as §1, §2
(In broth dilution the organism is exposed to a series of concentrations in liquid medium.)

Series [5] has as its system E. coli N°40 (clinical isolate). The conditions noted are these: broth microdilution; for MIC E. coli N°40: clinical isolate from blood. As for the experimental part: as §1, §2
The subject of the next series is E. coli 25922. Nature of the series: Antibacterial activity in the presence of human sera. It is filed as cell-based. The settings on record: for MIC against E. coli 25922, Serum (without Pre-Incubation): peptide diluted in fresh human sera (100%), then inoculum in MHB ~5 × 10^5 CFU/mL, 18 h, 37 °C. As for the experimental part:
The second assay involved peptide dilution in fresh human sera (100%) pre-incubated for 6 h at 37 °C in a humid chamber before putting them in contact with the bacterial inoculum diluted in MHB (~5 × 10^5 CFU/mL). The assay was incubated and read as mentioned in the microdilution section.

In series [6] the test system is E. coli ATCC 11775. The format is cell-based. The settings on record: broth microdilution.
Series [7] deals with E. coli 35218 (ampicillin-resistant ATCC 35218 strain). It is filed as cell-based. The settings on record: broth microdilution.
Series [8] concerns E. coli ATCC 25922. Nature of the series: Bactericidal activity (MBC). The format is cell-based. The conditions noted are these: aliquots of no-growth MIC wells on LBA, 18 h, 37 °C; kills 99.9%. As for the experimental part: (§3) Bactericidal activity was evaluated by sowing an aliquot of Luria Bertani agar (LBA) in the wells where no growth had been detected in the MIC assay.
For series [9], the system named is E. coli ML35 43827. Nature of the series: Bactericidal activity (MBC). It is filed as cell-based. Here is the method: as §3
The subject of series [10] is E. coli ATCC 11775. As to the kind of experiment: Bactericidal activity (MBC). The format is cell-based. Here is the method: as §3
Series [11] has as its system human red blood cells (hRBC). As to the kind of experiment: Haemolytic activity (MHC). The format is cell-based. The conditions noted are these: for MHC (minimum haemolytic concentration): 5% v/v hRBC in 1X PBS, 200–0.39 µM, 1 h, 37 °C, absorbance 560 nm. Here is the method: A haemolytic activity assay was used for determining whether peptides acted on hRBC membrane by calculating the minimum haemolytic concentration (MHC). Briefly, 100 µL serial dilutions of peptides were incubated in a 96-well plate with an equal volume of a fresh hRBC suspension at 5% v/v in 1X PBS (200–0.39 µM final peptide concentrations). The samples were spun at 1000× g for 5 min after having been incubated at 37 °C for 1 h and a Multiskan spectrometer (Thermo Fisher) was used for measuring 100 µL supernatant absorbance at 560 nm. Treated hRBC absorbance 0.1% Triton X-100 or 100% haemolysis was used as positive control.

The test system of another series is E. coli 35218. It is filed as cell-based. As for the experimental part:
as §3

For series [12], the system named is E. coli N°44 (clinical isolate). It is filed as cell-based. Here is the method:
as §3
(§4) Approximately 50 bacterial samples were then collected from E. coli-infected patients for evaluating activity of the peptides against some clinical isolates. These samples were identified and biochemically and metabolically characterised using the VITEK-2 equipment. Isolates were profiled regarding their resistance or susceptibility to a panel of conventionally used antibiotics. Three E. coli isolates having different resistance profiles were then selected following such characterisation (Appendix A): • Isolate 4 (from urine): extended spectrum beta-lactamase (ESBL) (-), resistant to ampicillin, quinolones and co-trimoxazole. • Isolate 40 (from blood): ESBL (-), resistant to ampicillin, 1st-generation cephalosporins and co-trimoxazole. • Isolate 44 (from blood): ESBL (+), resistant to aminoglycosides, quinolones, β-lactams (including 1st-, 3rd- and 4th-generation cephalosporins).

Series [13] concerns E. coli N°40 (clinical isolate). The format is cell-based. As for the experimental part: as §3, §4
For series [14], the system named is E. coli ATCC 25922. The format is cell-based. The settings on record: for MIC E. coli 25922: broth microdilution, MHB, ~5 × 10^5 CFU/mL, 18 h, 37 °C, OD 620 nm, 100 to 0.2 µM; for MIC against E. coli 25922, MHB: no serum.
Series [15] relates to E. coli ML35 43827. It is filed as cell-based. The settings on record: broth microdilution.
The subject of series [16] is E. coli. The source holds these as a separate data set.
Description: as §5, §6
Series [17] has as its system E. coli clinical isolate 4. As to the kind of experiment: Resistance profile of clinical isolate (VITEK-2). The format is cell-based. The settings on record: Escherichia coli, isolate from urine.
Description: as §2

Series [18] concerns E. coli clinical isolate 40. Nature of the series: Resistance profile of clinical isolate (VITEK-2). The format is cell-based. The conditions noted are these: Escherichia coli, isolate from blood.
Description: as §2

Series [19] has as its system E. coli clinical isolate 44. As to the kind of experiment: Resistance profile of clinical isolate (VITEK-2). It is filed as cell-based. The conditions noted are these: Escherichia coli, isolate from blood.
Description: as §2

The subject of series [20] is E. coli. As to the kind of experiment: microbe, parasite or virus in culture. The conditions noted are these: Escherichia coli, read-out: Individual gentamicin MIC.
Description: as §5, §6
Series [21] relates to P. aeruginosa 27853. Nature of the series: Bactericidal activity (MBC). The format is cell-based. The settings on record: LBA, 18 h, 37 °C. Here is the method:
as §3

The subject of series [22] is E. coli (ATCC strains and clinical isolates). As to the kind of experiment: MIC summarised over several E. coli strains. The format is cell-based. As for the experimental part:
The standard broth microdilution method was used for determining the peptides’ MIC [41]. Briefly, serial peptide dilutions (100 to 0.2 µM concentration) were incubated in 96-well plates at 100 μL/well final volume for 18 h at 37 °C in a damp chamber with ~5 × 10^5 CFU/mL bacterial inoculum (calculated from the calibration curve equation previously obtained for each strain (Figure S1)). Optical density (OD) was measured at 620 nm after 18 h on a microplate reader. Bacteria in Müller–Hinton broth (MHB) were used as negative control. […] The MIC was determined as the lowest peptide concentration at which bacterial growth was not detected.

For series [23], the system named is E. coli ATCC 25922. Nature of the series: Potential for inducing bacterial resistance (serial subculture at 0.5 MIC). The settings on record: repeated treatment with 0.5× MIC, 18 days, two independent assays in duplicate. It is filed as cell-based. As for the experimental part:
The MIC against this subculture was then determined by micro-dilution in broth. […] Two independent assays were carried out in duplicate. MIC changes were plotted for each subculture (day of assay).

For another series, the system named is E. coli ML35. Nature of the series: Permeabilising internal membrane (ONPG). It is filed as cell-based. The conditions noted are these: 1× MIC.

In brackets after ≈: the same amount, converted by molar mass. Where two headings read alike, the source gives them in different places. No end group written: not given here. A value given as a limit tells only on which side of the number the result lay.

In the case of KKMKKALQYIKLLK-NH2 [Peptide 35409-13], the “FIC Index” value in the series with E. coli [1] (peptide + ciprofloxacin, lowest checkerboard FIC index (method 3)) was found to be 3; with E. coli [16] (peptide + gentamicin, lowest checkerboard FIC index (method 3)), 0.75. Besides, the “FIC P (peptide)” value is reported as 1 in the series with E. coli [1] (with ciprofloxacin) and 0.25 in the series on E. coli [16] (with gentamicin). For the same compound, the “MIC P. aeruginosa 27853” value in the series with P. aeruginosa 27853 [2] is given as more than 100 µM. Also, in series [3], the “MIC E. coli N°4” value was more than 100 µM. Also, in series [4], the “MIC E. coli N°44” value is 25 µM. Also, in series [5], the “MIC E. coli N°40” value is given as 50 µM. In the series with E. coli 25922, the “MIC against E. coli 25922, Serum (without Pre-Incubation)” value was determined as 50 µM. The compound further had an MIC E. coli 11775 in the series with E. coli ATCC 11775 [6] of 100 µM. Moreover, in series [7], the “MIC E. coli 35218” value came to 25 µM. For the same compound, in the series on E. coli ATCC 25922 [8], the MBC E. coli 25922 amounted to 50 µM. Besides, in the series with E. coli ML35 43827 [9], the “MBC E. coli ML35 43827” value amounted to 50 µM. The compound also returned an MBC E. coli 11775 against E. coli ATCC 11775 [10] of more than 100 µM. The “MHC (minimum haemolytic concentration)” value in [11] is more than 200 µM. The “MBC E. coli 35218” value against E. coli 35218 is on record as 100 µM. The “MBC E. coli N°44” value in [12] amounted to 50 µM. For the same compound, the “MBC E. coli N°40” value in series [13] is 100 µM. For the same compound, the MIC E. coli 25922 against E. coli ATCC 25922 [14] came to 50 µM. In the series on E. coli ATCC 25922 [14], the “MIC against E. coli 25922, MHB” value was found to be 50 µM. Moreover, in the series on E. coli ML35 43827 [15], the “MIC E. coli ML35 43827” value turned out to be 25 µM.
For `CNC(C)C1CCC(N)C(OC2C(N)CC(N)C(OC3OCC(C)(O)C(NC)C3O)C2O)O1` (stereo not drawn) [Gentamicin, gentamicin], the MIC in series [17] was not above 1 µg/mL; in series [18], not above 1 µg/mL; in series [19], not below 16 µg/mL; in the series on E. coli [20] it was 0.5 µg/mL (≈ 1.05 µM). Besides, in series [3] (clinical isolate), the “MIC E. coli N°4 (antibiotics)” value amounted to 2 µg/mL (≈ 4.19 µM). Further, in series [4] (clinical isolate), the “MIC E. coli N°44 (antibiotics)” value is more than 16 µg/mL. Further, the “MIC E. coli N°40 (antibiotics)” value in [5] (clinical isolate) came out at 1 µg/mL (≈ 2.09 µM).
Regarding RKKKMKKALQYIKLLKE-NH2 [Peptide 35409-1], the Interpretation result in the series with E. coli [1] (peptide + ciprofloxacin) and in the series on E. coli [16] (peptide + gentamicin) was “Indifference” each time. For the same compound, the “x MIC Combination, Peptide” value is 1/1 x MIC with E. coli [1] (with ciprofloxacin, fraction of individual peptide MIC (individual = 1)) and 1/0.25 x MIC in the series with E. coli [16] (with gentamicin, fraction of individual peptide MIC (individual = 1)). The MIC P. aeruginosa 27853 in the series on P. aeruginosa 27853 [2] stood at 100 µM. Also, in series [3], the “MIC E. coli N°4” value is more than 100 µM. In addition, the “MIC E. coli N°44” value in series [4] is on record as 12.5 µM. Besides, the “MIC E. coli N°40” value in series [5] stood at 25 µM. Moreover, in the series on E. coli 25922, the “MIC against E. coli 25922, Serum (without Pre-Incubation)” value is reported as 12.5 µM. The “MIC against E. coli 25922, Serum (6 h Pre-Incubation)” value with E. coli 25922 (peptide in fresh human sera (100%) pre-incubated 6 h at 37 °C before inoculum, stability read-out) is 50 µM. In addition, the “MIC E. coli 11775” value in the series on E. coli ATCC 11775 [6] is recorded as more than 100 µM. In [7], this compound yielded an MIC E. coli 35218 of 6 µM. In the series with E. coli ATCC 25922 [8], the MBC E. coli 25922 was found to be 25 µM. Moreover, in the series with E. coli ML35 43827 [9], the MBC E. coli ML35 43827 amounted to 3 µM. The compound also showed an MBC P. aeruginosa 27853 in the series on P. aeruginosa 27853 [21] of 100 µM. Moreover, the “MHC (minimum haemolytic concentration)” value in series [11] is more than 200 µM. Besides, the “haemolysis relative to average MIC” value in series [11] (concentration as multiple of average MIC 14.3 µM) was “did not induce haemolysis at 14-fold higher concentrations”. For the same compound, the “average MIC against E. coli” value in series [22] is listed as 14.3 µM. In addition, the MBC E. coli 35218 in the series with E. coli 35218 worked out at 6 µM. In series [12], the “MBC E. coli N°44” value is 100 µM. For the same compound, the MIC E. coli 25922 in the series with E. coli ATCC 25922 [14] was 25 µM. In the series on E. coli ATCC 25922 [14], the “MIC against E. coli 25922, MHB” value turned out to be 25 µM. In the series on E. coli ATCC 25922 [23], the “fold increase in MIC over initial MIC” value was “eight-fold”. Also, the MIC E. coli ML35 43827 in the series on E. coli ML35 43827 [15] amounted to 3 µM. Also, the “time at which maximum permeabilisation was reached” value in the series with E. coli ML35 (1X PBS, 1.5 mM ONPG, 37 °C, 405 nm every 30 min for 4.5 h, triplicate) is on record as 1.5 h. Besides, the “permeabilisation of E. coli internal membrane” value in the series with E. coli ML35 (ONPG, 405 nm, 4.5 h) is given as “did act on E. coli internal membrane”.
